Source: patent US20060270670A1, “Methods of synthesizing 6-alkylaminoquinoline derivatives” (priority 2005, published 2006)
Like-named read-outs stand apart in the source and are kept apart here. Values belong to the molecule of their own block, whether it stands above or below them.

What was measured:
3T3/neu = assay: Cell proliferation assay (SRB), 3T3/neu; type: cell-based, mouse; conditions: for IC50: Mus musculus, 48 h, read-out: IC50 cell proliferation 3T3/neu
HER-2 = molecular target: T1, HER-2 (Homo sapiens, UniProt P04626); assay: ErbB substrate phosphorylation assay (33PanQinase assay), HER-2; type: biochemical; conditions: peptide substrate phosphorylation, [γ33P]-ATP
T1 construct: purchased ProQinase, Freiburg, Germany
T1 sequence (P04626 23-1255): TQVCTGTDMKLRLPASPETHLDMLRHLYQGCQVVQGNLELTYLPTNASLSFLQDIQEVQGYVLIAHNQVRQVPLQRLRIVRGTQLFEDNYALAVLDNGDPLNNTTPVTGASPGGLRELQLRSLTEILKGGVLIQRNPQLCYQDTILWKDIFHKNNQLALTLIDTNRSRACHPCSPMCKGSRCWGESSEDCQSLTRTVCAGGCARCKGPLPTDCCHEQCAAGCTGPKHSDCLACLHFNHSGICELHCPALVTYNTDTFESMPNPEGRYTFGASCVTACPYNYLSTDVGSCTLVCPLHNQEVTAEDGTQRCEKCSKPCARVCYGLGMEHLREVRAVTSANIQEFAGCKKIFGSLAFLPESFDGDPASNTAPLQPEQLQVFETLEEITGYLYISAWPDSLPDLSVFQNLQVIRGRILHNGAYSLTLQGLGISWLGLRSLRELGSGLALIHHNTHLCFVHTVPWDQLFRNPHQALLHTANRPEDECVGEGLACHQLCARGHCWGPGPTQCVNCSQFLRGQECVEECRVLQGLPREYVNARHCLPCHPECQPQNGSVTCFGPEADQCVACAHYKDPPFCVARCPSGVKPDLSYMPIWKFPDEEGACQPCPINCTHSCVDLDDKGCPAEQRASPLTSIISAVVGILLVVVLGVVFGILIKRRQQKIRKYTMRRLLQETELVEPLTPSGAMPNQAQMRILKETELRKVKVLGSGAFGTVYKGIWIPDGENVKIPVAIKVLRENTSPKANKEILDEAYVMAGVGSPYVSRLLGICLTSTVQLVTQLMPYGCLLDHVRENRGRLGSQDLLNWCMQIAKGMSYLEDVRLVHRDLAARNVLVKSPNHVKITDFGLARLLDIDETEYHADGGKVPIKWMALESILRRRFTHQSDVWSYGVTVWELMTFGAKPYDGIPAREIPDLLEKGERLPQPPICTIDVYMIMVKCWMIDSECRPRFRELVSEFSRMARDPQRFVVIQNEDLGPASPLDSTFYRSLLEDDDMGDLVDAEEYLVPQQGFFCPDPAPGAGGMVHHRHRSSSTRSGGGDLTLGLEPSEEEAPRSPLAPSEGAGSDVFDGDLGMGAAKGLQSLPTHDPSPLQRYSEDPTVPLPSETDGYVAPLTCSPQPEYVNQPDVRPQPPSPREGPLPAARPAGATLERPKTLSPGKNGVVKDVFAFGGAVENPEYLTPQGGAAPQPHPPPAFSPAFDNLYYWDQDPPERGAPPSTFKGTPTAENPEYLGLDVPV
Method: (§1) Here, the ability of the compound to inhibit phosphorylation of a substrate peptide [poly(Glu-Tyr) or poly(Ala-Glu-Lys-Tyr)] was determined.

SK-Br-3 = assay: Cell proliferation assay (SRB), SK-Br-3; type: cell-based; conditions: Homo sapiens, read-out: IC50 cell proliferation SK-Br-3
[1] = system: SW620 colon carcinoma cells; assay: Cell proliferation assay (SRB), SW620; type: cell-based; conditions: Homo sapiens, SW-620, 48 h, read-out: IC50 cell proliferation SW620
3T3 = assay: Cell proliferation assay (SRB), 3T3; type: cell-based; conditions: Mus musculus, NIH3T3, 48 h, read-out: IC50 cell proliferation 3T3
[2] = molecular target: T2, cytoplasmic kinase domain of HER-2 (Homo sapiens, UniProt P04626); assay: HER-2 autophosphorylation assay; type: biochemical; conditions: purified recombinant C-terminal fragment of HER-2 with ATP; phosphotyrosine antibodies; mean and SE (n)
T2 construct: Purified recombinant C-terminal fragment of HER-2 was incubated with ATP
T2 sequence (P04626 676-1255 limits assumed): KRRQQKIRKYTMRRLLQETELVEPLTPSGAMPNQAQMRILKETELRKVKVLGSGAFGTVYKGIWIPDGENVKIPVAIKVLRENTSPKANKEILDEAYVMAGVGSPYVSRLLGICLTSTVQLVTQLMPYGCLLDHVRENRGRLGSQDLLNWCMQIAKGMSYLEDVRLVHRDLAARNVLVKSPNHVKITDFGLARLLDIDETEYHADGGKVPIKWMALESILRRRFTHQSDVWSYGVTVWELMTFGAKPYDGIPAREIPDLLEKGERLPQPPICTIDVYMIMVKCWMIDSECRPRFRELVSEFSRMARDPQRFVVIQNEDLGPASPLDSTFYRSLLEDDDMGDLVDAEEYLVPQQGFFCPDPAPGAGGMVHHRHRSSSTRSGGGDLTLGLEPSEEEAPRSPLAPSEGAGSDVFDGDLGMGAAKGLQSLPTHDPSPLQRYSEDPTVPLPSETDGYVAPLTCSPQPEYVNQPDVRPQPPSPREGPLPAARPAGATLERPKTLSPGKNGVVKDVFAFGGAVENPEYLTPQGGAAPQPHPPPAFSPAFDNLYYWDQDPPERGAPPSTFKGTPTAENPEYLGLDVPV

3T3/neu xenografts = assay: Effect on tumor xenografts, 3T3/neu; type: in vivo, Mice
BT474 xenografts = assay: Effect on tumor xenografts, BT474; type: in vivo, Mice; conditions: for effect on BT474 xenografts: 10-40 mg/kg/day; for maximum tumor inhibition: day 21
Method: In animals bearing BT474 xenografts, treatment of animals with (E)N-{4-[3-chloro-4-(2-pyridinylmethoxy)anilino]-3-cyano-7-ethoxy-6-quinolinyl}-4-(methylamino)-2-butenamide had no effect at 10-40 mg/kg/day, as shown in Table 4.

HER-4 = molecular target: T3, HER-4 (Homo sapiens, UniProt Q15303); assay: ErbB substrate phosphorylation assay (33PanQinase assay), HER-4; type: biochemical; conditions: peptide substrate phosphorylation, [γ33P]-ATP
T3 construct: purchased ProQinase, Freiburg, Germany
T3 sequence (Q15303 26-1308): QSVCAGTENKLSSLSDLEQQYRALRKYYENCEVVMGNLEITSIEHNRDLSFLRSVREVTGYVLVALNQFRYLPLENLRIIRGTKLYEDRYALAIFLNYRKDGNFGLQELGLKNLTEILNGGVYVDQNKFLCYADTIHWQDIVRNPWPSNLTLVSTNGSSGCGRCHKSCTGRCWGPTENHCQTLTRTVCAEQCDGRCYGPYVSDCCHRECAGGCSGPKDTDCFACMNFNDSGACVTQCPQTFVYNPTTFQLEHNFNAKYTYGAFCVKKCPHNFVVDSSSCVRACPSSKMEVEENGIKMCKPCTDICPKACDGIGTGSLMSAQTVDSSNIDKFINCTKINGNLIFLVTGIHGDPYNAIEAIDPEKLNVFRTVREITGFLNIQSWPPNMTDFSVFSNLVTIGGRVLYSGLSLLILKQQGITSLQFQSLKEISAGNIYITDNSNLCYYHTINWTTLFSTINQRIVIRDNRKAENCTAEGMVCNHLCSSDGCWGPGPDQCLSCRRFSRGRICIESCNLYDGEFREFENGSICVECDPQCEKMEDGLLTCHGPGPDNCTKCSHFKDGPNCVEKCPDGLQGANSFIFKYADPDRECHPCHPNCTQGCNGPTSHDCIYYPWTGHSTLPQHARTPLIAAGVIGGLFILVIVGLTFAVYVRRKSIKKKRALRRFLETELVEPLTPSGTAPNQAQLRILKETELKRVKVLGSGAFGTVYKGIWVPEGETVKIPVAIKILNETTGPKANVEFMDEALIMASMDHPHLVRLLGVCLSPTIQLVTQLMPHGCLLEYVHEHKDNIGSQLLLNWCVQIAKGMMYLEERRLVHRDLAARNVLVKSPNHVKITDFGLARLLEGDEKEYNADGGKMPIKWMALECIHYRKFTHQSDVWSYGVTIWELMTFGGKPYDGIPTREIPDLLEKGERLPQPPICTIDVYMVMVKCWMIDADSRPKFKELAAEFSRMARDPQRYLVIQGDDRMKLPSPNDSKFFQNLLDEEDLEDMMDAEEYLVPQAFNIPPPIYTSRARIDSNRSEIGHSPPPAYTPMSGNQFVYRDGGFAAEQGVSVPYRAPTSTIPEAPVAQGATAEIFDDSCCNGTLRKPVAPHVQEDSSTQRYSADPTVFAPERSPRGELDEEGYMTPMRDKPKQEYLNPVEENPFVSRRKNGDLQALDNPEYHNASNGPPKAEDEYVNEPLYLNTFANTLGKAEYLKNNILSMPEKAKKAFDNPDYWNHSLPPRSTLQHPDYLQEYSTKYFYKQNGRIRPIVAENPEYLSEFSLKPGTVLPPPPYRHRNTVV
Method: as §1

A431 = assay: Cell proliferation assay (SRB), A431; type: cell-based; conditions: Homo sapiens, A-431, 48 h, A431, 2 days, mean and SE (n)
BT474 = assay: Cell proliferation assay (SRB), BT474; type: cell-based; conditions: Homo sapiens, BT-474, 144 h, read-out: IC50 cell proliferation BT474
EGFR = molecular target: T4, EGFR (Homo sapiens, UniProt P00533); assay: ErbB substrate phosphorylation assay (33PanQinase assay), EGFR; type: biochemical; conditions: peptide substrate phosphorylation, [γ33P]-ATP
T4 construct: purchased ProQinase, Freiburg, Germany
T4 sequence (P00533 25-1210): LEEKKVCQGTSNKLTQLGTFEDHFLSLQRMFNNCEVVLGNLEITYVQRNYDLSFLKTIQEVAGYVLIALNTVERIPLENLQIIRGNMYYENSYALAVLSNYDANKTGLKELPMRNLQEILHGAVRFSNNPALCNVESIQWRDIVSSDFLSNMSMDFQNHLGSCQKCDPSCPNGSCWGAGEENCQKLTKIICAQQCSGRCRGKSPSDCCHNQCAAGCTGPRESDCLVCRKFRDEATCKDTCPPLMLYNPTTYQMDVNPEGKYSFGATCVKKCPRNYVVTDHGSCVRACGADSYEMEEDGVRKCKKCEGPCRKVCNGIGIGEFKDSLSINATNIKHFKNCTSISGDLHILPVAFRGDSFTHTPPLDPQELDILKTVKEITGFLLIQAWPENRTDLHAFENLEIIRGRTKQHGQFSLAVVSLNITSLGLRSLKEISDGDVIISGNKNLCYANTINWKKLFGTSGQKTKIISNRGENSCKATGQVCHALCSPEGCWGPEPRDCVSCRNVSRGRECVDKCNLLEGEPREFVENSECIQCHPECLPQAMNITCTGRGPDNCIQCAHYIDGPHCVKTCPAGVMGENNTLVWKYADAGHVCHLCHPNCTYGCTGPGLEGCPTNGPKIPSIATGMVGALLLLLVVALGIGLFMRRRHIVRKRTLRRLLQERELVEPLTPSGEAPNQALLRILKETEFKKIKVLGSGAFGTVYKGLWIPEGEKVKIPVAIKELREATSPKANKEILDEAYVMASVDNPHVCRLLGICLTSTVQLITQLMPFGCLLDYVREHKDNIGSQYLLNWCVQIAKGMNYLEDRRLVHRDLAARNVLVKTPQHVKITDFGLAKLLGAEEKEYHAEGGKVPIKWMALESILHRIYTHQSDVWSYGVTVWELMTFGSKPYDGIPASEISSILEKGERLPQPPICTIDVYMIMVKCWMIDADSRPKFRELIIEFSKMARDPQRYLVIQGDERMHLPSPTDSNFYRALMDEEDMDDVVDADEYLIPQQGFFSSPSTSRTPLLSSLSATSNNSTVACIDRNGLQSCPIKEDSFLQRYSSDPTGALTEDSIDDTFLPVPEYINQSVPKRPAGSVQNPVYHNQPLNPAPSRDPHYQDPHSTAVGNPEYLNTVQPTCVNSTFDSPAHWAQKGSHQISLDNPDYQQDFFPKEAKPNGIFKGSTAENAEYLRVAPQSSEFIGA
Method: as §1

IC50 (HER-2): 21 nM
IC50 (SK-Br-3; 48 h, SK-Br-3, 2 days, SRB, mean and SE (n)): 34 nM
IC50 ([1]; SW620, 2 days, SRB, mean and SE (n)): 1600 nM
IC50 [2]: 3.4 nM
IC50 (HER-4): 13 nM
IC50 (A431): 67 nM
IC50 (BT474; BT474, 6 days, SRB, mean and SE (n)): 3 nM
IC50 (EGFR): 7 nM
SMILES: CCOc1cc2ncc(C#N)c(Nc3ccc(OCc4ccccn4)c(Cl)c3)c2cc1NC(=O)/C=C/CNC [Example 6, (E)N-{4-[3-Chloro-4-(2-pyridinylmethoxy)anilino]-3-cyano-7-ethoxy-6-quinolinyl}-4-(methylamino)-2-butenamide]
fold less potent than the dimethylamino compound (3T3/neu; 3T3/neu cells): 8 fold
IC50 (3T3/neu; 3T3/neu, 2 days, SRB, mean and SE (n)): 40 nM
IC50 (3T3; 3T3 untransfected cells, 2 days, SRB, mean and SE (n)): 5460 nM
effect on tumor growth (3T3/neu xenografts; first test, daily oral, between 5 and 40 mg/kg/day): no effect on tumor growth
effect on tumor growth (3T3/neu xenografts; second independent test, 100 mg/kg/day): no effect on tumor growth
effect on BT474 xenografts (BT474 xenografts): no effect

melting point: 106.5 to 108 °C
SMILES: CCOc1cc2ncc(C#N)c(Nc3ccc(F)c(Cl)c3)c2cc1NC(=O)/C=C/CNCC(=O)OC(C)(C)C [Example 2, (E)N-{4-[3-chloro-4-fluoroanilino]-3-cyano-7-ethoxy-6-quinolinyl}-4-[N-(t-butyloxycarbonyl)methylamino]-2-butenamide]

SMILES: CCOc1cc2ncc(C#N)c(Nc3ccc(OCc4ccccn4)c(Cl)c3)c2cc1NC(=O)/C=C/CN(C)C [Dimethylamino, (E)N-{4-[3-Chloro-4-(2-pyridinylmethoxy)anilino]-3-cyano-7-ethoxy-6-quinolinyl}-4-(dimethylamino)-2-butenamide, reference compound]
IC50 (3T3/neu): 5 ± 0.2 nM
IC50 (SK-Br-3; SK-BR-3, 48 h): 36 ± 20 nM
IC50 [1]: 1220 ± 246 nM
IC50 (3T3): 2190 ± 700 nM
tumor growth inhibition (3T3/neu xenografts; first test, 40 mg/kg/day, day 18 (data not shown)): 74%
tumor growth inhibition (3T3/neu xenografts; second independent test, between 40 and 80 mg/kg/day, day 14): 93-100%
maximum tumor inhibition (BT474 xenografts; 10 mg/kg/day): 64%
maximum tumor inhibition (BT474 xenografts; 40 mg/kg/day): 97%
effect on BT474 xenografts (BT474 xenografts): good antitumor activity
IC50 (BT474): 2 ± 0.2 nM
